From patent US11998546B2, “Pharmaceutical combinations comprising a histone deacetylase inhibitor and epothilone and methods of use thereof” (ACETYLON PHARMACEUTICALS, INC., priority 2016, dated 2024)

What was measured:
TOV-21G cells [1] = assay: Multipolar spindle formation in TOV-21G cells (DAPI, NuMA, α-tubulin staining); type: cell-based; details: 24 hours, 2 μM Compound B combined with 0.5 nM epothilone B vs single agents
Protocol: The cells were then stained with DAPI (to label DNA) and antibodies for α-tubulin and the spindle pole marker NuMA.
Cells in mitosis were then manually counted and scored for the presence of normal bipolar spindles or abnormal multipolar spindles. The frequency of cells with multipolar spindles was determined and scored in at least 100 cells from each treatment condition.

TOV-21G cells [2] = assay: Cell proliferation of TOV-21G cells, crystal violet staining; type: cell-based; details: seven days, Compound B (2 μM) and/or epothilone B (4 nM)
Protocol: The cells were then stained with crystal violet (hexamethyl pararosaniline chloride) dye. The crystal violet dye was extracted in 10% v/v acetic acid, and absorbance was measured in triplicate at a wavelength of 540 nm on a spectrophotometer (FIG. 2B).

O=C(CCCCCCNC(=O)c1cnc(N(c2ccccc2)c2ccccc2Cl)nc1)NO [Compound B, 2-((2-chlorophenyl)(phenyl)amino)-N-(7-(hydroxyamino)-7-oxoheptyl)pyrimidine-5-carboxamide]
frequency of cells with multipolar mitotic spindles (TOV-21G cells [1]): enhanced the multipolar spindle formation induced by epothilone
inhibition of tumor cell proliferation (crystal violet absorbance at 540 nm) (TOV-21G cells [2]): inhibition of tumor cell proliferation by Epotholine B was enhanced
